Experimental data taken from patent publication US8586307B2, “Methods for diagnosing epigenetic, transgenerational effects of environmental toxicants on mammalian germ-lines and treating associated diseases” (priority 2005, dated 2013).
Several values for one entry are separate records, joined by “and”; a condition that tells them apart may be missing. Equal values may be shown once.

Assays:
sperm DNA = test: Bisulfite sequencing of sperm DNA; type: in vivo, rat
Description: Bisulfite Sequencing: Genomic DNA was isolated from F1 and F4 sperm samples using the DNeasy Tissue Kit (Qiagen, Valencia, Calif.) and digested with Rsa I. Genomic DNA was then treated with sodium bisulfite, following methods previously established. Briefly, 5 μg of digested DNA was denatured in NaOH, then treated with 4.0 M, pH 5.0 sodium metabisulfite for 16 hours at 55° C. Following desalting, DNA was desulfonated with NaOH, neutralized and precipitated with ammonium acetate and ethanol. DNA samples were resuspended in 30 μL, of 1 mM Tris buffer, pH 8.0. Sequence specific primers were generated to amplify the region of interest. PCR products were cloned into pGemT Easy vector (Promega Corporation) and sequenced. Approximately 35 clones from each PCR product were sequenced for analysis of methylation state of the CpG sites. Confirming altered methylation states involved comparisons of the sequence following the bisulfite treatment. The primers for the lysophospholipase PCR bisulfite analysis were 5′GGTATATATAGAGGAAGGTAGGTA GG3′ (SEQ ID NO:1) and 5′TAAAAACCTCCAAAAAACAAACAC T3′ (SEQ ID NO:2).
Bisulfite sequencing: Bisulfite sequencing was used to characterize the DNA methylation patterns and changes. Genomic DNA was isolated from control and vinclozolin F2 and F3 generation epididymal sperm using the DNeasy Tissue Kit. Genomic DNA (10 μg) was digested with RsaI then treated with bisulfite as described above for Example I. After purification, the bisulfite converted DNA was used as a template for PCR. The bisulfite primers for each candidate were designed using MethPrimer (www.urogene.org/methprimer) system (Li and Dahiya, 2002) and are listed in Table 2. The sequence specific primers were generated to amplify the CpG region of interest to characterize the methylation pattern. PCR conditions for amplification were as follows: 30 cycles followed by another 30 cycles with nested primers (30 s at 95° C., 45 s at 50° C., and 50 s at 72° C.) and then 5 min at 72° C. with modified 1× buffer [10×: 166 mM (NH4)2.SO4; 670 mM Tris pH 8.8; 67 mM MgCl2; 100 mM β-mercaptoethanol]. PCR products were cloned into pGEM-T easy vector (Promega) and sequenced using Big-Dye Terminator (Applied BioSystems). Approximately 50 different clones from each PCR product were sequenced to characterize the methylation state of the CpG sites identified. A mixture of a minimum of 3 different F2 or F3 generation control and vinclozolin animals were used to generate approximately 50 clones per candidate analyzed. Statistical differences between methylation states were determined with a Fisher's Exact Test.

epididymal sperm = conditions: rat, in vivo
Description: In Vivo Procedures: Gestating outbred Sprague-Dawley and inbred Fisher mother rats from timed, pregnant colonies housed at the Washington State University Vivarium, were given intraperitoneal injections of vinclozolin (100 mg/kg/day) and methoxychlor (200 mg/kg/day) from embryonic day 8-15 (E8-E15, sperm positive vaginal smear date=E0) of gestation (F0 generation) as previously described. Gestating mothers administered vehicle, sesame oil or DMSO, served as controls. At least 6 lines (individual F0 injected females) were generated for controls and treated groups for these analyses. Male rats from control and treated groups were collected at P60-P180 for analyses. F1 treated males were bred to F1 treated females to generate the F2 treated generation and F2 treated males were bred to F2 treated females to generate the F3 generation and the F3 were bred in the same manner to generate the F4 generation. Rats for the control groups were bred in the same manner for all the generations. No inbreeding or sibling crosses were generated. The outcross group (VOC) were generated by breeding the F2 treated males with wild-type females (total of 6 litters) and reverse outcross group (RVOC) was generated by breeding F2 treated females with wild-type males (total of 3 litters). Control (n=4) and treated (n=4) male offspring from the F1 generation from Fisher strain rats were collected at P6 for DNA methylation analysis, see below. All procedures have been approved by the Washington State University Animal Care Committee. […]
Sperm Motility and Concentration Analysis: Animals were sacrificed and cauda epididymal sperm motility was determined using cauda epididymal sperm. […] All the motile sperm including rapid progressive, slow progressive and non-progressive were counted according to WHO category. Percent ratio of the motile sperm to the total number of sperm including immotile sperm was calculated. Epididymal sperm count was determined using the same epididymis sample according to a previously described method with some modifications.

male rats = conditions: rat, in vivo
Description: In Vivo Procedures: Gestating outbred Sprague-Dawley and inbred Fisher mother rats from timed, pregnant colonies housed at the Washington State University Vivarium, were given intraperitoneal injections of vinclozolin (100 mg/kg/day) and methoxychlor (200 mg/kg/day) from embryonic day 8-15 (E8-E15, sperm positive vaginal smear date=E0) of gestation (F0 generation) as previously described. Gestating mothers administered vehicle, sesame oil or DMSO, served as controls. At least 6 lines (individual F0 injected females) were generated for controls and treated groups for these analyses. Male rats from control and treated groups were collected at P60-P180 for analyses. F1 treated males were bred to F1 treated females to generate the F2 treated generation and F2 treated males were bred to F2 treated females to generate the F3 generation and the F3 were bred in the same manner to generate the F4 generation. Rats for the control groups were bred in the same manner for all the generations. No inbreeding or sibling crosses were generated. The outcross group (VOC) were generated by breeding the F2 treated males with wild-type females (total of 6 litters) and reverse outcross group (RVOC) was generated by breeding F2 treated females with wild-type males (total of 3 litters). Control (n=4) and treated (n=4) male offspring from the F1 generation from Fisher strain rats were collected at P6 for DNA methylation analysis, see below. All procedures have been approved by the Washington State University Animal Care Committee. The number of animals used for replicates in the experiments (i.e. n value) are as follows for vinclozolin treatment: F1 (control 11, treated 12); F2 (control 19, treated 30); F3 (control 19, treated 26); F4 (control 10, treated 17); VOC (18); and RVOC (6). For methoxychlor treatment animal number was for F1 (control 6, treated 9) and F2 (control 16, treated 22).
Histology: Tissues were fixed in Bouin's (Amresco, Solon Ohio) and embedded in paraffin, and then sections stained with hematoxylin and eosin, according to standard procedures. The n=50 treated vinclozolin, n=42 controls.

[1] = F2/F3 sperm DNA, one of 5 potential CpG sites
[2] = F2/F3 sperm DNA, one of 6 potential CpG sites

C=CC1(C)OC(=O)N(c2cc(Cl)cc(Cl)c2)C1=O (stereo not shown) [vinclozolin]
treated sperm DNA samples with bisulfite altered sequence of the lysophospholipase gene (sperm DNA; CpG island of lysophospholipase gene): approximately 25%
methylation differences, Candidate #7 (Ankrd28/Galntl2) (sperm DNA; F2/F3 sperm DNA): did not have any detectable differences
methylation differences, Candidate #21, 32 (LOC503205/NCAM1) (sperm DNA; F2/F3 sperm DNA): no differences in methylation
methylation differences, Candidate #23 (LOC503150/snRP1c) (sperm DNA; F2/F3 sperm DNA): no differences in methylation
methylation differences, Candidate #25 (Mup4/MUP) (sperm DNA; F2/F3 sperm DNA): no differences in methylation
CpG hypermethylated to, Candidate #29 (Runx1/Awa1p) (sperm DNA; F2/F3 sperm DNA, 1 of 6 potential CpG sites): 48%
CpG hypermethylated to, Candidate #14, 15 (Lrrn6a) (sperm DNA; F2/F3 sperm DNA, 2 of 4 potential CpG): 27%
CpG hypermethylated to, Candidate #26 (Acaca) (sperm DNA; F2/F3 sperm DNA, 2 of 5 potential CpG sites): 50% and 28%
CpG hypermethylated to, Candidate #33 (Six3/Six2) (sperm DNA; F2/F3 sperm DNA, 2 of 6 potential CpG sites): 31% and 57%
CpG hypermethylated to, Candidate #27, 28 (zinc finger protein 212) (sperm DNA; F2/F3 sperm DNA, 2 of 8 potential CpG sites): 45% and 48%
CpG hypermethylated to, Candidate #5, 6, 9 (FLJ22405 protein) (sperm DNA; F2/F3 sperm DNA, 2 of 9 potential CpG): 50% and 35%
CpG hypermethylated to, Candidate #17, 18 (nicastrin/Copa) (sperm DNA; F2/F3 sperm DNA, 2 of 20 potential CpG sites): 55% and 30%
CpG hypermethylated to, Candidate #13 (Nfix) (sperm DNA; F2/F3 sperm DNA, 4 of 17 potential CpG sites): 50-60%
methylation differences, Candidate #4, 19 (Cacna1e) (sperm DNA; F2/F3 sperm DNA, 6 potential CpG): did not have any detectable differences in methylation
CpG hypermethylated to, Candidate #31 (Waspip/LOC499811) (sperm DNA; F2/F3 sperm DNA, one of 4 potential CpG sites): 42%
CpG hypermethylated to, Candidate #8 (liprin-α1/Fadd) (sperm DNA; [1]): 65%
CpG hypermethylated to, Candidate #22 (tgolgin-1) (sperm DNA; [1]): 67%
CpG hypermethylated to, Candidate #12 (similar to importin 7) (sperm DNA; [2]): 51%
CpG hypermethylated to, Candidate #16 (optineurin) (sperm DNA; [2]): 79%
H19 methylation (known imprinted gene, control) (sperm DNA; control vs vinclozolin F2/F3 sperm DNA): No change
candidate DNA sequences confirmed to have specific hypermethylation (sperm DNA; of the 25 candidates, F2/F3 sperm DNA): 15
methylation change, Candidate #34 (RAB12) (sperm DNA; partial region only): no change in methylation
sperm forward motility reduced (epididymal sperm; male): approximately 20%
sperm numbers reduced (epididymal sperm; male): approximately 20%
sperm number and motility in outcross (VOC) males (epididymal sperm): decrease
animals that developed a dramatic decrease in spermatogenic capacity (male rats; male): approximately 20%
animals with infertility associated with small testis and severely reduced spermatogenesis (male rats; male): 4 animals
transgenerational animals that developed complete infertility (male rats; male): 8%
histology of the testis, control versus treated (male rats): similar
infertility in outcrossed (VOC) males (male rats): increased infertility
infertility in reverse outcross (RVOC) (male rats): no infertility
